Measurements reported in patent publication US20100285145A1, “GPR 119 MODULATORS” (PFIZER INC, priority 2009, published 2010).

Assays:
male Wistar rats [1] = assay: Intraperitoneal glucose tolerance test (IPGTT); format: in vivo; details: rat, 20 mg/kg in 0.5% methylcellulose, IP glucose administered 30 minutes post dose
male Wistar rats [2] = assay: Oral glucose tolerance test (OGTT); format: in vivo; details: rat; for Glucose 0-120 min AUC (percent vehicle response): 30 min before glucose 2 g/kg
Description: All in vivo protocols were approved by the Pfizer's Animal Welfare Committee. Naive male Wistar rats (225-250 g body weight on receipt) were obtained from Harlan Laboratories (Indianapolis, Ind.), were pair housed in hanging plastic caging on Sani-chips sawdust bedding, and fed ad libitum on Purina 5001 chow. The rats were housed under a controlled light cycle (light from 6 am to 6 pm) at controlled temperature and humidity conditions. Rats were acclimated to the facility for at least 1 week prior to study.
Example 17 was formulated in 0.5% methylcellulose. The highest dose (30 mg/kg) was formulated at 6 mg/mL for administration at 5 mL/kg, the required bulk was added to a mortar and ground with a small amount of 0.5% methylcellulose to a smooth paste with a pestle, additional 0.5% methylcellulose was added until the mixture flowed, when it was transferred to a stirred container, the mortar was rinsed several times with remaining quantity of 0.5% methylcellulose and capped to prevent evaporation. The suspension was stirred continuously overnight with a magnetic stir bar prior to study, and the lower doses were diluted from the 6 mg/mL suspension using the appropriate volume of 0.5% methylcellulose. All dosing suspensions were stirred throughout the dosing procedure.
Rats were stratified (n=8/group) to vehicle (0.5% methylcellulose) or one of three dose groups (1, 5, or 30 mg/kg) according to body weight on day-1 to ensure that each group had equal group mean body weight values. The rats were fasted overnight in clean cages overnight (˜15 hours) prior to the oral glucose tolerance test. Body weights were recorded on the morning of the study (post fasting) for dose volume calculation. Blood samples were collected from all rats prior to dosing with vehicle or test compound via oral gavage (5 mL/kg). Thirty minutes later rats were bled and immediately dose with an oral dose of glucose (2 g/kg). The rats were re-bled at 15, 30, 60 and 120 minutes post-glucose load. Blood samples (˜250 μL/time point) were collected into EDTA tubes with aprotinin/DPPIVi (0.6 TIU/2 μL per mL whole blood). Blood tubes were inverted several times immediately following collection and placed on ice, then spun at 14,000 rpm in a refrigerated centrifuge for 5 minutes. Plasma samples were analyzed for glucose levels using a Roche 912 clinical chemistry analyzer, plasma insulin concentrations were determined using the Alpco Ultra-Sensitive Insulin Rat ELISA, and total amide GLP-1 concentrations were determined using MSD ELISA kit.
The results are presented as mean+/−SEM (standard error of the mean) unless otherwise stated. Statistical evaluation of the data is carried out using one-way analysis of variance (ANOVA) with appropriate post-hoc analysis between vehicle and treatment group. Differences compared to vehicle with a p>0.05 were considered statistically significant using Dunnett's T-test.

Structure (SMILES)	Insulin AUC (0-60 min) (percent vehicle response) (male Wistar rats [1])	Insulin 0-60 min AUC (percent vehicle response) (male Wistar rats [2]; 1 mg/kg oral)	Total Amide GLP-1 0-120 min AUC (percent vehicle response) (male Wistar rats [2]; 1 mg/kg oral)	Glucose 0-120 min AUC (percent vehicle response) (male Wistar rats [2]; 1 mg/kg oral)	Insulin 0-60 min AUC (percent vehicle response) (male Wistar rats [2]; 5 mg/kg oral)	Total Amide GLP-1 0-120 min AUC (percent vehicle response) (male Wistar rats [2]; 5 mg/kg oral)	Glucose 0-120 min AUC (percent vehicle response) (male Wistar rats [2]; 5 mg/kg oral)	Insulin 0-60 min AUC (percent vehicle response) (male Wistar rats [2]; 30 mg/kg oral)	Total Amide GLP-1 0-120 min AUC (percent vehicle response) (male Wistar rats [2]; 30 mg/kg oral)	Glucose 0-120 min AUC (percent vehicle response) (male Wistar rats [2]; 30 mg/kg oral)
CC(C)OC(=O)N1CCC(Oc2cc(N3CCc4cc(S(C)(=O)=O)ccc43)ncn2)CC1 [Example 3, Isopropyl 4-({6-[5-(methylsulfonyl)-2,3-dihydro-1H-indol-1-yl]pyrimidin-4-yl}oxy)piperidine-1-carboxylate]	104	–	–	–	–	–	–	–	–	–
Cc1c(O[C@H]2CCN(C(=O)OC3(C)CC3)C[C@H]2F)ncnc1N1CCc2ncccc21 [Example 17, 1-Methylcyclopropyl (3R,4S)-4-{[6-(2,3-dihydro-1H-pyrrolo[3,2-b]pyridin-1-yl)-5-methylpyrimidin-4-yl]oxy}-3-fluoropiperidine-1-carboxylate]	–	90	147	102	142	+184 percent vehicle response	95	112	150	++90 percent vehicle response
